The data set has as its system cardiac ventricular tissue. Conditions: at least 2-fold relative to control. The source says: Male Sprague-Dawley rats weighing between 175-220 grams were used for all studies. Animals were purchased from Charles River Laboratories (Wilmington, Mass.) and allowed to acclimate for one week prior to use. All animals were given food and water ad libitum, and housed under a 12-hour light/12-hour dark cycle. The animals were housed in conventional plastic bottom cages (2 animals/cage) with corncob bedding. All dosing with test compounds was a single acute injection by the intraperitoneal route, in normal saline, with a 20×¾″ disposable needle attached to a 1 cc disposable syringe. These animals were euthanized by a 150 mg/kg intraperitoneal injection of Nembutal prior to collection of heart tissue.
Dose range-finding studies were completed to determine a xenobiotic dose that would produce signs of cardiotoxicity such as elevated serum troponins, creatine kinase isoenzymes, or histo-pathological tissue changes, without causing overt general toxicity. Comprehensive literature reviews were also used to select doses. […] Six or twenty-four hours later, animals were euthanized with a lethal intraperitoneal dose of Nembutal solution. Biopsy punches were used to remove approximately […] of ventricular tissue for subsequent RNA isolation and gene expression analysis. Total RNA was isolated from the samples using a Qiagen RNAeasy protocol (Valencia, Calif.). In this procedure, RNA is captured on a solid phase column, then washed with a series of solutions to purify the sample. In the last step, RNA is eluted from the column with RNAse free water. RNA quality and quantity was then checked with an optical density reading at 260/280 wavelengths, and an aliquot of RNA was run on an RNA denaturing gel. High quality RNA should have an OD 260/280 ratio of 2, and the denaturing gel should show two distinct ribosomal RNA bands.
Synthesis of double stranded cDNA from the total RNA isolated was the first step, which involves the incorporation of a T7-(dT)24 primer into the sequence, with subsequent second strand synthesis which yields a double stranded template for the in vitro transcription (IVT) reaction. The resulting cDNA was run in an IVT reaction using an Enzo BioArray High Yield RNA transcript labeling kit (Enzo Life Sciences, Inc. Farmingdale, N.Y.), during which a biotin label was incorporated into the complementary RNA (cRNA) sequence. This step also amplified the product by generating approximately 40 transcripts per cDNA substrate. After the IVT reaction, cRNA was fragmented by metallic fragmentation, and a small portion of the sample was run on a 1% agarose gel in order to visualize the fragmentation pattern. The range should be between 35 to 200 bases. Four samples from each group showing the highest purity and quality results were pooled for hybridization onto one Genechip to greatly reduce experimental costs. Genes of interest that are found through the use of GeneChip technology, will then be verified using real time PCR techniques on each individual sample.
Next, the cRNA was hybridized to the RG U34A GeneChip oligonucleotide array (Affymetrix Inc, Santa Clara, Calif.). An aliquot of the fragmented cRNA was mixed with control components, injected into the array, and the filled array was allowed to incubate at 45° C. for 16 hours in an Affymetrix oven, which rotates the samples continuously during incubation. The next morning, the array was taken from the oven and the sample was removed and frozen at −80° C. for possible future use. That is, in the event of a defective chip, the hybridization solution can be re-used. The array chamber was then filled with a wash buffer, and placed in an automated fluid exchange system. The fluidics station controls the washing and staining of the probe array with the fluorescently labeled streptavidin stain solution and an antibody solution. After the staining process was complete the chips were scanned by an Agilent GeneArray laser scanner (Agilent, Palo Alto, Calif.).

Where [1] appears, read: 6 hour after single i.p. dose (DIG 20, DOX 30, ISO 70, LPS 10 mg/kg).
Where [2] appears, read: 24 hour after single i.p. dose (DIG 20, DOX 30, ISO 70, LPS 10 mg/kg).

Turning to lipopolysaccharide [LPS], under setting [1], the “AA957003 intercellular calcium-binding protein expression, up or down” value is given as “up”; the “AI176456 metallothionein expression, up or down” value is reported as “up”; the “J02722 heme oxygenase (hsp32) expression, up or down” value is “up”; the “X01118 gamma-rANP expression, up or down” value is reported as “down”. In addition, the “X89225 L-like neutral amino acid transport protein expression, up or down” value under setting [1] was “up”. Under setting [2], the “AA892801 EST expression, up or down” value is given as “up”; the “AA899106 cyclin D2 expression, up or down” value is listed as “down”; the “AB005743 fatty acid transporter expression, up or down” value is listed as “up”; the “AF016296 neuropilin expression, up or down” value is on record as “down”. Also, under setting [2], the “AI008852 EST expression, up or down” value is “up”; the “AI170776 GRB2 expression, up or down” value is “up”; the “AI638989 EST expression, up or down” value is listed as “down”; the “D85183 SHPS-1 expression, up or down” value was “up”. Under setting [2], the “M57276 leukocyte antigen MRC-OX44 expression, up or down” value is reported as “up”; the “U14950 synapse-associated protein 97 expression, up or down” value is listed as “up”; the “U68272 interferon gamma receptor expression, up or down” value was “up”; the “X52140 integrin alpha-1 expression, up or down” value is given as “down”. For the same substance, under setting [2], the “X71127 complement protein C1q beta chain expression, up or down” value is on record as “up”.

(Values after patent US20050138675A1, “Method for determining cardiotoxicity” (Pfizer Inc., priority 2003, published 2005).)
